Measurements as given in US11213533B2, “Combinations comprising dibromopropamidine or diminazene and a tetracycline anti-bacterial agent” (UNION therapeutics A/S, priority 2016, dated 2022).
Where a name gives a salt, the structure may show the parent alone. Read-outs that look alike come from different tables or passages of the source.

Key:
E. Coli = assay: Checkerboard MIC / synergy determination (FIC, CI) against E. coli; type: cell-based, Escherichia coli; conditions: for MIC tetracycline (μg/ml) (combination): MIC of the tetracycline antibiotic in combination with diminazene; for CI value: combination of the tetracycline antibiotic with diminazene, CI < 1 = synergy; for FIC tetracycline compound: in combination with diminazene; for MIC: Escherichia coli
[1] = test system: Pseudomonas aeruginosa (X11045); assay: Checkerboard MIC / synergy determination (FIC, CI) against Pseudomonas aeruginosa; type: cell-based; conditions: for MIC tetracycline (μg/ml) (combination) / CI value / synergy with diminazene (in words) / FIC tetracycline compound / FIC tetracycline / MIC tetracycline / MIC tetracycline compound / MIC / FIC dibromopropamidine / MIC diminazene (μg/ml) (combination) / MIC dibromopropamidine (μg/ml) (combination): P. aeruginosa; for CI value: CI < 1 = synergy; for synergy with dibromopropamidine (in words): combination with dibromopropamidine, inhibition of P. aeruginosa, Table 3; for synergy with diminazene (in words): combination with diminazene, Table 2; for FIC tetracycline compound: in combination with dibromopropamidine; for FIC tetracycline: in combination with diminazene; for MIC: Pseudomonas aeruginosa
Method: In microbiology, minimum inhibitory concentration (MIC) is the lowest concentration of an antibacterial that will inhibit the visible growth of a microorganism after overnight incubation. Minimum inhibitory concentrations are important in diagnostic laboratories to confirm resistance of microorganisms to an antimicrobial agent and also to monitor the activity of new antimicrobial agents. The MIC can be determined using standard methods, for example as described in Andrews, J. Antimicrobial Chemotherapy, 48, 2001, Suppl. S1, 5-16. Typically, MIC is determined using 96-well plates, and serial two-fold dilutions of the antibacterial agent in a culture medium containing the bacteria with an approximate concentration of 10^3 cells per well. Plates are incubated at 37° C. for 18 to 24 hours. Optical density, at a wavelength of 600 nm, is then measured at the start and at the end of the incubation period. Inhibition in a particular well is calculated as (Inhibition=1−ODtest/ODno treatment). The MIC value is the minimum concentration of antibacterial agent which gives 100% inhibition. Experiments are generally performed at least as triplicate biological replicates.
The CI is measured by first calculating the fractional inhibitory concentration (FIC) of the individual actives (e.g. “compound A” or “compound B”) in a combination product against a certain bacterial strain. This is calculated by dividing the minimum inhibitory concentration (MIC) of the active in a combination product by the minimum inhibitory concentration of the active alone.
The Combination Index (CI) is calculated by adding the FIC of the two actives together. CI value=FICCompound A+FICCompound B
A CI value of 1 means the combined effect of the two agents is additive. A CI value of less than 1 means that the two agents act synergistically. It is therefore understood that the lower the CI value, the better the synergistic effect of the combination product. For a drug combination to show synergistic effects, the CI value will typically be less than 1.
This study was conducted with the following strains: Pseudomonas aeruginosa (X11045). P. aeruginosa (X11045) was received form Statens Serum Institute.
The bacteria from cryopreserved stocks were grown on LB agar plates [G. Bertani, “Studies on lysogenesis. I. The mode of phage liberation by lysogenic Escherichia coli,” J. Bacteriol., vol. 62, no. 3, pp. 293-300, September 1951] and incubated overnight at 37° C.
One colony was transferred into 15 ml of cation-adjust Mueller Hinton broth (MH2) [J. H. Mueller and J. Hinton, “A Protein-Free Medium for Primary Isolation of the Gonococcus and Meningococcus,” Exp. Biol. Med., vol. 48, no. 1, pp. 330-333, October 1941] and incubated overnight at 37° C. shaken at 200 rpm.
Checkerboard Methods of Antimicrobial Combinations Synergy Determination • 1. Day 1. • Bacterial strains are isolated on agar plates and incubated overnight at 37° C. Pseudomonas aeruginosa (X11045) on LB agar. • 2. Day 2. • For each strain, one colony is transferred into 15 ml of Mueller Hinton broth (MHB) and incubated overnight at 37° C. shaken at 200 rpm. • 3. Day 3. • Fifty microliters of the O/N culture are inoculated to 5 ml of Mueller Hinton broth in 15 ml conical tubes and incubated for 5 hours at 37° C. shaken at 200 rpm. • 4. Dispense 150 μl of MHB in each well of the 12th column for positive and negative controls as shown above. • 5. Prepare each drug to Cmax×2 • a. Diminazene/Dibromopropamidine: • Make a series of 2-fold dilution as shown in the plate layout. Using the 12 channel pipet, dispense 75 μl of diminazene solution in each well so that the final volume will be 150 μl and the final concentration is as shown in the plate schematic above. • b. Tetracycline antibiotics: • Make a series of 2-fold dilution as shown in the plate layout. […]

[2] = cited from earlier work
[3] = MIC of the tetracycline antibiotic in combination with dibromopropamidine
[4] = MIC of the tetracycline antibiotic in combination with diminazene, OD600 after 18 hours
[5] = combination of the tetracycline antibiotic with dibromopropamidine
[6] = combination of the tetracycline antibiotic with diminazene
[7] = tetracycline antibiotic alone, Table 2 (diminazene series)
[8] = tetracycline antibiotic alone, Table 3 (dibromopropamidine series)
[9] = diminazene alone, read-out: MIC diminazene
[10] = diminazene in combination with doxycycline hyclate
[11] = diminazene in combination with minocycline hydrochloride
[12] = diminazene in combination with tetracycline hydrochloride
[13] = in combination with doxycycline hyclate
[14] = in combination with minocycline hydrochloride
[15] = in combination with tetracycline hydrochloride
[16] = in combination with tigecycline hydrate

| Compound | MIC tetracycline (μg/ml) (combination) (E. Coli) | CI value (E. Coli) | FIC tetracycline compound (E. Coli) | MIC tetracycline compound (E. Coli; tetracycline antibiotic alone) | MIC tetracycline (μg/ml) (combination) [1, 3] | MIC tetracycline (μg/ml) (combination) [1, 4] | CI value [1, 5] | CI value [1, 6] | synergy with diminazene (in words) [1] | FIC tetracycline compound [1] | FIC tetracycline [1] | MIC tetracycline compound [1, 8] | Protein binding (%) [2] | also measured |
| --- | --- | --- | --- | --- | --- | --- | --- | --- | --- | --- | --- | --- | --- | --- |
| CN(C)c1ccc(O)c2c1C[C@H]1C[C@H]3[C@H](N(C)C)C(O)=C(C(N)=O)C(=O)[C@@]3(O)C(O)=C1C2=O.Cl [Minocycline hydrochloride] | 0.13 µg/mL | 0.50 | 0.25 | 0.50 µg/mL | 0.50 µg/mL | 3.13 µg/mL | 0.28 | 0.25 | strong synergy | 0.03 | 0.13 | 16.00 µg/mL | 66% | synergy with dibromopropamidine (in words) [1]: Especially strong synergy; MIC tetracycline [1, 7]: 25.00 µg/mL |
| C[C@H]1c2cccc(O)c2C(=O)C2=C(O)[C@]3(O)C(=O)C(C(N)=O)=C(O)[C@@H](N(C)C)[C@@H]3[C@@H](O)[C@@H]21 [Doxycycline hyclate] | 0.25 µg/mL | 0.56 | 0.50 | 0.50 µg/mL | 0.50 µg/mL | 3.13 µg/mL | 0.28 | 0.25 | strong synergy | 0.03 | 0.13 | 16.00 µg/mL | 85% | MIC tetracycline [1, 7]: 25.00 µg/mL |
| CN(C)c1cc(NC(=O)CNC(C)(C)C)c(O)c2c1C[C@H]1C[C@H]3[C@H](N(C)C)C(O)=C(C(N)=O)C(=O)[C@@]3(O)C(O)=C1C2=O [Tigecycline hydrate] | 0.25 µg/mL | 0.38 | 0.25 | 1.00 µg/mL | 0.50 µg/mL | – | 0.52 | – | – | 0.02 | – | 32.0 µg/mL | 80% | synergy with diminazene (in words) (E. Coli; combination with diminazene, Table 4): particularly good synergy |
| N=C(N)c1ccc(/N=N/Nc2ccc(C(=N)N)cc2)cc1 [diminazene, Diminazene aceturate] | – | – | – | – | – | – | – | – | – | – | – | – | 65-85% | MIC (E. Coli; [9]): 20 µg/mL; MIC diminazene (μg/ml) (combination) (E. Coli; [10]): 1.25 µg/mL; MIC diminazene (μg/ml) (combination) (E. Coli; [11]): 5.00 µg/mL; MIC diminazene (μg/ml) (combination) (E. Coli; [12]): 20.00 µg/mL; MIC diminazene (μg/ml) (combination) (E. Coli; diminazene in combination with tigecycline hydrate): 2.50 µg/mL; FIC diminazene (E. Coli; [13]): 0.06; FIC diminazene (E. Coli; [14]): 0.25; FIC diminazene (E. Coli; [15]): 1.00; FIC diminazene (E. Coli; [16]): 0.13; MIC [1, 9]: 250 µg/mL; FIC dibromopropamidine ([1]; Table 2 (diminazene table), in combination with doxycycline hyclate): 0.13; FIC dibromopropamidine ([1]; Table 2 (diminazene table), in combination with minocycline hydrochloride): 0.13; FIC dibromopropamidine ([1]; Table 2 (diminazene table), in combination with tetracycline hydrochloride): 0.25; MIC diminazene (μg/ml) (combination) [1, 10]: 31.25 µg/mL; MIC diminazene (μg/ml) (combination) [1, 11]: 31.25 µg/mL; MIC diminazene (μg/ml) (combination) [1, 12]: 62.50 µg/mL |
| Doxycycline hyclate | – | – | – | – | – | – | – | – | – | – | – | – | – | synergy with dibromopropamidine (in words) [1]: Especially strong synergy |
| CN(C)[C@@H]1C(O)=C(C(N)=O)C(=O)[C@@]2(O)C(O)=C3C(=O)c4c(O)cccc4[C@@](C)(O)[C@H]3C[C@@H]12.Cl [Tetracycline hydrochloride] | 0.50 µg/mL | 2.00 | 1.00 | – | 2.00 µg/mL | 4.00 µg/mL | 0.63 | 0.50 | strong synergy | 0.13 | 0.25 | – | – | MIC (E. Coli; 18 h, tetracycline antibiotic alone, read-out: MIC tetracycline compound): 0.5 µg/mL; MIC ([1]; 18 h, tetracycline antibiotic alone, Table 2 (diminazene series), read-out: MIC tetracycline): 16 µg/mL; MIC ([1]; 18 h, tetracycline antibiotic alone, Table 3 (dibromopropamidine series), read-out: MIC tetracycline compound): 16 µg/mL |
| N=C(N)c1ccc(OCCCOc2ccc(C(=N)N)cc2Br)c(Br)c1 [dibromopropamidine, Dibromopropamidine dihydrochloride] | – | – | – | – | – | – | – | – | – | – | – | – | – | MIC ([1]; dibromopropamidine alone, read-out: MIC dibromopropamidine): 10 µg/mL; MIC dibromopropamidine (μg/ml) (combination) ([1]; dibromopropamidine in combination with doxycycline hyclate): 2.50 µg/mL; MIC dibromopropamidine (μg/ml) (combination) ([1]; dibromopropamidine in combination with minocycline hydrochloride): 2.50 µg/mL; MIC dibromopropamidine (μg/ml) (combination) ([1]; dibromopropamidine in combination with tetracycline hydrochloride): 5.00 µg/mL; MIC dibromopropamidine (μg/ml) (combination) ([1]; dibromopropamidine in combination with tigecycline hydrate): 5.00 µg/mL; FIC dibromopropamidine [1, 13]: 0.25; FIC dibromopropamidine [1, 14]: 0.25; FIC dibromopropamidine [1, 15]: 0.50; FIC dibromopropamidine [1, 16]: 0.50 |
